Laboratory results reported in patent publication US11458120B2, “Aptamer-drug conjugate and use thereof” (priority 2016, dated 2022).
Non-standard residues stand in square brackets, D forms with d. Residues, ends and D or L forms follow the SMILES beside them. *: point of attachment. Dolaproine = CO[C@@H]([C@@H]1CCCN1)[C@@H](C)C(=O)O; Dil = CC[C@H](C)[C@H](NC)[C@@H](CC(=O)O)OC; X1 = C[C@@H](N*)[C@@H](O)c1ccccc1; NMeV = CN[C@H](C(=O)O)C(C)C

What was measured:
[1] = test system: Mv4-11 AML cell line-injected mice; assay: In vivo therapeutic efficacy on Mv4-11 AML cell line-injected mice (FDG PET); parameters: species or system nude mouse; conditions: Mv4-11 AML tumor, i.v. 4 times by 5 day intervals, conjugate 7.5 mg/kg or MMAE 0.5 mg/kg, 30 days after start of treatment
Description: (§1) To Mv4-11 AML cell line-injected mice, citravin-(GLFG-MC-S-C6)-T3-AS1411 and MMAE, respectively, were administered by IV injection for 30 days, followed by identifying tumor sizes through PET images. Mv4-11 AML cells in a number of 6.1×10^6 cells/ml were injected subcutaneously in the right thigh of each nude mouse. The tumor size was measured in 3 to 4 weeks after the injection and, when a diameter of the tumor reached 0.8 cm, microPET images were captured before treatment. For PET images, F-18 FDG 0.2 mCi was i.p. injected and then the images were captured (Siemens Inveon). After detection of FDG intake in the tumor from the images, citravin-(GLFG-MC-S-C6)-T3-AS1411 was i.v. injected in an experimental group of 5 mice 4 times by 5 day intervals (7.5 mg/kg, 0.5 mg/kg of MMAE). After 30 days from the start of treatment, microPET images were captured by the same method as used before treatment (FIG. 13 and FIG. 14).
To Mv4-11 AML cell line-injected mice, MMAE was administered by IV injection for 30 days, followed by observation of PET images. Mv4-11 AML cells in the number of 6.1×10^6 cells/ml were injected subcutaneously in the right thigh of each nude mouse. The tumor size was measured in 3 to 4 weeks after the injection and, when a diameter of the tumor reached 0.8 cm, microPET images were captured before treatment. […]

[2] = test system: A549 lung cancer cell line-injected mice; assay: In vivo therapeutic efficacy on A549 lung cancer cell line-injected mice (FDG PET, tumor size); parameters: species or system nude mouse; conditions: i.v. 4 times by 5 day intervals, conjugate 7.5 mg/kg (0.5 mg/kg of MMAE) or MMAE 0.5 mg/kg, 30 days after start of treatment
Description: as §1, with “A549 lung cancer” for “Mv4-11 AML”, “MMAE-(PAB-Cit-Val-MC-S-C6)-T3-AS1411” for “citravin-(GLFG-MC-S-C6)-T3-AS1411”, “After 30 days from the start of treatment, microPET images were captured by the same method as used before treatment (FIG. 13 and FIG. 14).” left out
To A549 lung cancer cell-injected mice, MMAE was administered by IV injection for 30 days, followed by observation of PET images. […] The tumor size was measured in 3 to 4 weeks after the injection and, when a diameter of the tumor reached 0.8 cm, microPET images were captured before treatment. […]
As compared to administration of MMAE alone, it was determined that MMAE-(PAB-Cit-Val-MC-S-C6)-T3-AS1411 inhibits 80% more cancer. After the start of treatment, sizes of tumors were measured in both of horizontal and vertical axes by 5 day intervals. […]

[3] = reported by the Weihong Tang group, University of Florida; cited from earlier work
Mv4-11 cell line = assay: MTT assay to Mv4-11 cell lines; format: cell-based; conditions: Mv4-11 cells, 72 hours incubation, absorbance at 490 nm, FIG. 6
Description: With regard to Mv4-11 cell line as a […] over-expressing a nucleoline protein, cell inhibition efficacy of citravin-(GLFG-MC-S-C6)-T3-AS1411 was verified in vitro by MTT assay. […] Mv4-11 cells (ATCC, IMDM+10% FBS) were seeded on a 96-well plate in a cell number of 2.5 to 5×10^5 cells/well, which was determined by a cell test method to determine an appropriate cell concentration, followed by growing for 1 day. After heating each of citravin-(GLFG-MC-S-C6)-T3-AS1411 and citravin-(GLFG-MC-S-C6)-T3-CRO at 95° C. for 5 minutes, the heated product was gradually cooled at room temperature and directly treated on each well at different concentrations. After incubating the treated A549 cells in 5% CO2 incubator for 72 hours, the incubated product was treated with 20 μL of a reagent solution for MTT assay (Cell Proliferation kit II, Roche) and incubated for different periods of time (10 min, 30 min, 1 hr). Thereafter, the final product was subjected to measurement of absorbance at 490 nm by an ELISA reader (FIG. 6).

A549 cell line = assay: MTT assay to A549 cell lines; format: cell-based; conditions: A549 cells, 72 hours incubation, FIG. 17 and FIG. 18
Description: With regard to A549 cell line as a lung cancer cell line over-expressing a nucleoline protein, cell inhibition efficacy of MMAE-(PAB-Cit-Val-MC-S-C6)-T3-AS1411 was verified in vitro by MTT assay. […] A549 cells (ATCC, IMDM+10% FBS) were seeded on a 96-well plate in a cell number of 2.5 to 5×10^5 cells/well, which was determined by a cell test method to determine an appropriate cell concentration, followed by growing for 1 day. After heating each of MMAE-(PAB-Cit-Val-MC-S-C6)-T3-AS1411 and MMAE-(PAB-Cit-Val-MC-S-C6)-T3-CRO at 95° C. for 5 minutes, the heated product was gradually cooled at room temperature and directly treated on each well at different concentrations. […] Thereafter, the final product was subjected to measurement of absorbance at 490 nm by an ELISA reader (FIG. 5).
With regard to A549 cell line as a lung cancer cell line over-expressing a nucleoline protein, cell inhibition efficacies of MMAE-(PAB-Cit-Val-MC-S-C6)-T3-AS1411, 12 or 13-(MMAE-PAB-Cit-Val-MC-S-C6)-AS1411 and 12,13-(MMAE-PAB-Cit-Val-MC-S-C6)2-AS1411 were verified in vitro by MTT assay. […] A549 cells (ATCC, IMDM+10% FBS) were seeded on a 96-well plate in a cell number of 2.5 to 5×10^5 cells/well, which was determined by a cell test method to determine an appropriate cell concentration, followed by growing for 1 day. […]

With `CC[C@H](C)[C@@H]([C@@H](CC(=O)N1CCC[C@H]1[C@H](OC)[C@@H](C)C(=O)N[C@H](C)[C@@H](O)c1ccccc1)OC)N(C)C(=O)[C@@H](NC(=O)[C@@H](NC)C(C)C)C(C)C` [MMAE, monomethyl auristatin E, reference compound] (H-[NMeV]V[Dil][Dolaproine]-X1) the “FDG intake in the tumor from PET images, after vs before treatment” value (“FDG intake in the tumor … vs before treatment” for short) [1] was “FDG intake in the tumor was increased even after treatment” and the “FDG intake in the tumor … vs before treatment” value [2] was “FDG intake in the tumor was increased even after treatment”.
In the case of `COc1cccc2c1C(=O)c1c(O)c3c(c(O)c1C2=O)C[C@@](O)(C(=O)CO)C[C@@H]3O[C@H]1C[C@H](N)[C@H](O)[C@H](C)O1` [doxorubicin], the cytotoxic effects [3] is given as 20%.
In the case of “citravin-(Gly-Leu-Phe-Gly (SEQ ID NO: 8))-Mal-S-C6-tttggtggtggtggttgtggtggtggtgg [citravin-(GLFG-MC-S-C6)-T3-AS1411]”, the “FDG intake in the tumor … vs before treatment” value [1] is reported as “a decrease in FDG intake in the tumor is observed” and the “cell inhibition efficacy (cell viability and cell proliferation) by MTT assay, compared with citravin” value (Mv4-11 cell line) is reported as “almost the same efficacy as citravin”.
With “ggtggtggtggu (SEQ ID NO: 4)[5-N-(6-(3-monomethyl auristatin-p-aminobenzoyloxycarbonyl-citrulline-valine-Mal-thiopropanoyl)-aminohexyl)-3-acrylamido]u[5-N-(6-(3-monomethyl auristatin-p-aminobenzoyloxycarbonyl-citrulline-valine-Mal-thiopropanoyl)-aminohexyl)-3-acrylamido]gtggtggtggtgg (DNA GGTGGTGGTGGU; two MMAE-linker conjugates at positions 12,13, chemistry not fully specified) [12,13-(MMAE-PAB-Cit-Val-MC-S-C6)2-AS1411]” the “cell inhibition efficacy by MTT assay, comparison between MMAE-linker-aptamer conjugates” value (A549 cell line) was “superior efficacy over of MMAE-(PAB-Cit-Val-MC-S-C6)-T3-AS1411”.
